Values after ≈ are worked out from the molar mass of the structure shown.
Assays:
[1] = tested on: Staphylococcus aureus ATCC 29213; reference strain MSSA; experiment: Antimicrobial spectrum, broth microdilution MIC; assay type: cell-based; conditions: S. aureus ATCC 29213
Method: (§1) Minimum Inhibitory Concentrations (MICs) were determined in accordance with the Clinical and Laboratory Standards Institute (CLSI) methodology against aerobic bacteria (CLSI M07-A8) (see Clinical and Laboratory Standards Institute. 2009. Methods for dilution antimicrobial susceptibility tests for bacteria that grow aerobically. CLSI document M07-A8, Vol. 29, No. 2.) by the broth microdilution method with cation-adjusted Mueller-Hinton broth (CA-MHB) medium for the majority of organisms, except for Haemophilus influenza, where Haemophilis test medium (HTM) broth was used. Descriptions of the individual organisms can be found in the table. Where possible, ATCC standard strains were tested.
(§2) The inoculum density for the susceptibility testing was standardized to give a final inoculum of approximately 5×10^5 CFU/mL.
(§3) Stock solutions of the compounds were prepared in DMSO at concentrations of 1 mg/mL. Linezolid was prepared in DMSO at a concentration of 2 mg/mL. Stock solutions of all compounds were diluted into CA-MHB to give a range of two-fold dilutions, depending upon the sensitivity of the organism being tested.

[2] = tested on: Moraxella catarrhalis ATCC 8176; b-lactamase negative; experiment: Antimicrobial spectrum, broth microdilution MIC; assay type: cell-based; conditions: M. catarrhalis ATCC 8176
Method: as §1, §2, §3

[3] = tested on: Escherichia coli Tol C mutant; experiment: Antimicrobial spectrum, broth microdilution MIC; assay type: cell-based; conditions: E. coli tolC mutant
Method: as §1, §2, §3

[4] = tested on: Staphylococcus aureus NRS121; LZD-R; experiment: Antimicrobial spectrum, broth microdilution MIC; assay type: cell-based; conditions: S. aureus NRS121
Method: as §1, §2, §3

[5] = tested on: Staphylococcus aureus ATCC 43300; reference strain MRSA; experiment: Antimicrobial spectrum, broth microdilution MIC; assay type: cell-based; conditions: S. aureus ATCC 43300
Method: as §1, §2, §3

[6] = tested on: Escherichia coli ATCC 25922; reference strain; experiment: Antimicrobial spectrum, broth microdilution MIC; assay type: cell-based; conditions: E. coli ATCC 25922
Method: as §1, §2, §3

[7] = tested on: Haemophilus influenzae ATCC 49247; reference strain; experiment: Antimicrobial spectrum, broth microdilution MIC; assay type: cell-based; conditions: H. influenza ATCC 49247
Method: as §1, §2, §3

[8] = tested on: Staphylococcus aureus NRS119; LZD-R; experiment: Antimicrobial spectrum, broth microdilution MIC; assay type: cell-based; conditions: S. aureus NRS119
Method: as §1, §2, §3

[9] = biological target: S. aureus ATCC 29213 FabI (Staphylococcus aureus (strain MRSA252), UniProt Q6GI75); experiment: Staphylococcus aureus FabI enzyme inhibition assay; assay type: biochemical; conditions: pH 6.5, 30 minutes at room temperature
Method: FabI enzyme inhibition assays were carried out in half-area, 384-well microtitre plates. Compounds were evaluated in 40-μl assay mixtures containing 100 mM NaADA, pH 6.5 (ADA=N-[2-acetamido]-2iminodiacetic acid), 250 μM crotonoyl-CoA, 625 μM NADH and 50 μg/ml S. aureus ATCC 29213 FabI. Inhibitors were typically varied over the range of 50 to 0.39 μM. The reaction mixtures were incubated for 30 minutes at room temperature and the reaction was stopped by adding 200 mM Tris buffer (pH 9.0) to create a pH-shift. The consumption of NADH was monitored by measuring the change in absorbance at […]. By comparing sample readings to those of negative (absence of compound) and positive (absence of enzyme) controls, the percent inhibition of enzymatic activity of the compounds was determined. A best-fit curve is fitted by a minimum of squares method. From this an IC50-value (expressed in μg/ml), resulting in 50% inhibition of enzymatic activity, was obtained.

[10] = tested on: Staphylococcus aureus ATCC 29213; experiment: Antibacterial susceptibility testing: IC90 determination (STA); assay type: cell-based; conditions: STA ATCC 29213, 90% inhibitory concentration for bacterial growth
Method: The following bacteria were used: Staphylococcus aureus ATCC 29213, methicillin-resistant Staphylococcus aureus (MRSA) ATCC 700788 and Escherichia coli ATCC 35218. The bacteria used in this study were grown overnight in flasks containing 100 ml Mueller-Hinton broth (Difco cat. nr. 0757-17) in sterile de-ionized water, with shaking, at 37° C. Stocks were store at −70° C. until use.
Bacteria were incubated on a tryptic soy agar plate containing 5% sheep blood (Becton Dickinson cat. nr. 254053) for 18-24 hours at 35° C. in aerobic conditions (first passage). For the second passage, fresh Mueller-Hinton broth is inoculated with 5-10 colonies and grown overnight at 35° C. until turbidity (reaching log-phase) in aerobic conditions is reached. The bacterial suspension is then adjusted to 0.5 McFarland density and further diluted 1:100 in Mueller Hinton broth medium. This is used as inoculum.
MIC assays were performed by the broth microdilution method in a 96-well format (flat-bottom microtitre plates) with a final volume of 0.1 ml Mueller Hinton broth containing two-fold serial dilutions of compounds and inoculated with 5×10^5 CFU/ml of bacteria (standard inoculum size according to CLSI guidelines). Inhibitors are typically varied over the range of 63 to 0.49 μM. The final DMSO concentration in the assay was 1.25% (maximum tolerable DMSO concentration=6%). In the assays where the effect of human serum on the activity of the compounds against S. aureus was tested, human serum was added at a final concentration of 10%. The plates were incubated at 35° C. for 16-20 hours. At the end of incubation the bacterial growth was quantified fluorometrically. For this, resazurin was added to all wells and the plates were re-incubated. The incubation time is dependent on the type of bacteria. A change in color from blue to pink indicated the growth of bacteria. The fluorescence was read in computer-controlled fluorometer (Fluoroskan Ascent FL, Labsystems) at an excitation wavelength 540 nm and an emission wavelength of 590 nm. The % growth inhibition achieved by the compounds was calculated according to standard methods. The IC90 (expressed in μg/ml) was defined as the 90% inhibitory concentration for bacterial growth. A panel of reference compounds were simultaneously tested for QC approval.

SMILES: O=C1CCc2cc(/C=C/C(=O)N3C[C@@H]4CC(c5ccccc5)=C[C@@H]4C3)cnc2N1 (single isomer, unassigned) [compound 14]
- MIC90 [1]: 0.03 µg/mL (≈ 0.0778 µM)
- MIC90 [2]: 0.015 µg/mL (≈ 0.0389 µM)
- MIC90 [3]: 0.25 µg/mL (≈ 0.649 µM)
- MIC90 [4]: 0.03 µg/mL (≈ 0.0778 µM)
- MIC90 [5]: 0.03 µg/mL (≈ 0.0778 µM)
- MIC90 [6]: 4 µg/mL (≈ 10.4 µM)
- MIC90 [7]: 0.25 µg/mL (≈ 0.649 µM)
- MIC90 [8]: 0.03 µg/mL (≈ 0.0778 µM)
- FabI IC50 [9]: 0.40 µg/mL
- STA (361.159) IC90 [10]: 0.19 µg/mL
